Drawing on patent publication US4272437A, “Antibacterial agents, and 4-thio azetidinone intermediates” (priority 1979, dated 1981), this text covers MIC for 1 compound.

What all share (format): cell-based
Test [1] deals with Staph. aureus (Pen-Res) A-9606. Description: MIC, tube dilution, Staphylococcus aureus A9606 (Pen-Res). Particulars: Staphylococcus aureus, Staph. aureus A9606 (Pen-Res); overnight 37° C.; read-out: Minimum Inhibitory Concentration (M.I.C.). The text has this: (§1) Representative compounds of the present invention were subjected to in vitro antibiotic screening against a variety of microorganisms.

Test [2] deals with Ps. aeruginosa A-9843A. Description: MIC, tube dilution, Pseudomonas aeruginosa A9843A. Particulars: Pseudomonas aeruginosa, A9843A, read-out: Minimum Inhibitory Concentration (M.I.C.), Pseudomonas aeruginosa A9843A; overnight 37° C.
Text: as §1

The test system of test [3] is Ser. marcescens A-20019. Description: MIC, tube dilution, Serratia marcescens A20019. Particulars: Serratia marcescens, A20019, Serratia marcescens A20019; overnight 37° C.; read-out: Minimum Inhibitory Concentration (M.I.C.).
Text: as §1

The subject of test [4] is Pr. morganii A-15153. Description: MIC, tube dilution, Proteus morganii A15153. Particulars: Morganella morganii, A15153, Proteus morganii A15153; overnight 37° C.; read-out: Minimum Inhibitory Concentration (M.I.C.).
Text: as §1

In brackets after ≈: the same amount, converted by molar mass.

On to `NCCCCC1=C(C(=O)O)N2C(=O)CC2S1` (stereo not shown) [Example 73, 2-(4'-Aminobutyl)-penem-3-carboxylic Acid], for which the MIC is 32 µg/mL (≈ 132 µM) in test [1], greater than 125 µg/mL in test [2], 16 µg/mL (≈ 66 µM) in test [3] and 32 µg/mL (≈ 132 µM) in test [4].
